# Experiments:
# SKMEL19 = experiment: Combination assay, SKMEL19; type: cell-based; details: Homo sapiens, SK-MEL19; SKMEL19, chemotherapeutic alone; read-out: Chemo GI50
# Description: (§1) The combination index (CI) of combinations of certain example compounds and various chemotherapeutic agents in the CellTitetI-Glo® in vitro cell proliferation assays may be tested. A combination index score is calculated by the Chou and Talalay method (CalcuSyn software, Biosoft). The strength of synergy is scored using the ranking system Chou and Talalay: CI less than 0.8 indicates synergy, CI between 0.8 and 1.2 indicates additivity and CI greater than 1.2 indicates antagonism.
# (§2) The EC50 values of representative combinations are also calculated. The individually measured EC50 values of the chemotherapeutic agent and the example compounds are compared to the EC50 value of the combination. The cell lines are characterised by tumor type. Combination assays are performed as described in: “Pim 1 kinase inhibitor ETP-45299 suppresses cellular proliferation and synergizes with PI3K inhibition”. Blanco-Aparicio, Carmen; Collazo, Ana Maria Garcia; Oyarzabal, Julen; Leal, Juan F.; Albaran, Maria Isabel; Lima, Francisco Ramos; Pequeno, Belen; Ajenjo, Nuria; Becerra, Mercedes; Alfonso, Patricia; Reymundo, Maria Isabel; Palacios, Irene; Mateos, Genoveva; Quinones, Helena; Corrionero, Ana; Carnero, Amancio; Pevarello, Paolo; Lopez, Ana Rodriguez; Fominaya, Jesus; Pastor, Joaquin; Bischoff, James R. Cancer Letters (Shannon, Ireland) 2011, 300(2), 145-153
# MDAMB231 = experiment: Combination assay, MDAMB231; type: cell-based; details: Homo sapiens, MDA-MB-231; MDAMB231, chemotherapeutic alone; read-out: Chemo GI50
# Description: as §1, §2
# A549 = experiment: Combination assay, A549; type: cell-based; details: Homo sapiens; A549, chemotherapeutic alone; read-out: Chemo GI50
# Description: as §1, §2
# BXPC-3 = experiment: Combination assay, BXPC-3; type: cell-based; details: Homo sapiens; BXPC-3, chemotherapeutic alone; read-out: Chemo GI50
# Description: as §1, §2
# SW620 = experiment: Combination assay, SW620; type: cell-based, human; details: Homo sapiens, SW-620; SW620, chemotherapeutic alone; read-out: Chemo GI50
# Procedure, shortened: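 Cells treated with example compounds combined with chemotherapeutic agents, proliferation read by CellTiter-Glo. Combination index from the Chou–Talalay method (CI <0.8 synergy, 0.8–1.2 additivity, >1.2 antagonism); EC50 of the combination also derived alongside single-agent EC50s.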
# intracellular HASPIN = intracellular HASPIN (Homo sapiens (Human), UniProt Q8TF76); experiment: Cellular HASPIN inhibition assay, western blot phospho H3T3 in synchronized SW620 cells; type: cell-based; details: semiquantitative, read-out: SW620 PH3(T3) in synchronized cells
# Chain of intracellular HASPIN (Q8TF76 whole entry): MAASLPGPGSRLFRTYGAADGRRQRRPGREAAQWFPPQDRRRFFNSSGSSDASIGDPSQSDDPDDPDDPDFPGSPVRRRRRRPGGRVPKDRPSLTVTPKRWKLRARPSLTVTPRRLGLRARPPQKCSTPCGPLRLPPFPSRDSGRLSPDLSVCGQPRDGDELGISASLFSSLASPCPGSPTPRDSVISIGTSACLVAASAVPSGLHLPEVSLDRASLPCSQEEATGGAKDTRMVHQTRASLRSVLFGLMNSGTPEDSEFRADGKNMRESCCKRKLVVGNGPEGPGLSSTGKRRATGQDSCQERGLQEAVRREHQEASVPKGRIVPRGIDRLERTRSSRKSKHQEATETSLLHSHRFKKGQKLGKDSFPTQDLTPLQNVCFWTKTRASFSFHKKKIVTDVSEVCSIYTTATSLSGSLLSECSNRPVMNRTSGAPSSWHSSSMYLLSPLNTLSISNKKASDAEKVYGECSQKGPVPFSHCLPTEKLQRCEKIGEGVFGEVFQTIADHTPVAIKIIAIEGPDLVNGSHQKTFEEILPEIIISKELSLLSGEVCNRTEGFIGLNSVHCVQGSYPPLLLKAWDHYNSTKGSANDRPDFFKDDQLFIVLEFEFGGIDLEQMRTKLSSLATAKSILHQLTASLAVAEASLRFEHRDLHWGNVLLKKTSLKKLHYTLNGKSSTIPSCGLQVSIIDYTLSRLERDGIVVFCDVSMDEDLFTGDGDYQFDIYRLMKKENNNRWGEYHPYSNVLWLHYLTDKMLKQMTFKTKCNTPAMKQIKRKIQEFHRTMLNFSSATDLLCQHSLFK
# Description: Compounds can be screened for their ability to inhibit intracellular HASPIN using a western blot assay to detect phosphorylation of the HASPIN substrate H3T3 in synchronized cells. SW620 cells are plated at 200000 cells per well in 6-well plates (Solmeglas 13118) in RPMI media (Sigma-Aldrich R6504) supplemented with 10% foetal bovine serum (Sigma-Aldrich F7524), Penicillin/Streptomycin solution diluted 1:100 (Gibco 15070-063), and fungizone (Gibco, 15290-018), and allowed to adhere overnight at 37° C. in 5% CO2. Cells are then treated 16 h hours with Nocadazole (Sigma-Aldrich M1404) at 250 ng/ml to arrest them in mitosis. Proteasoma inhibitor MG132 (Sigma-Aldrich C2211) is added to a final concentration of […] to keep cells arrested in mitosis. Compounds are then added to the cell media from a final concentration of 10 μM in 10-fold serial dilutions and the cells are incubated at 37° C. in 5% CO2. After 1 hour and 30 minutes of treatment with the compounds, the cells are washed in PBS, lysed adding 100 μl of protein lysis buffer (62.5 mM Tris pH 6.8 al 6.25%, 2% SDS y 10% glycerol) incubation 10 minutes at room temperature and heating at 95° C. 10 min. The protein content of the lysates is determined by DC protein assay (Biorad, Ref. 5000116). The proteins are resolved by SDS-PAGE and transferred to nitrocellulose membrane (VWR International eurolab, Ref. 732-4007). The membranes are incubated overnight at 4° C. with antibodies specific for total H3 (Millipore #07424), phosphothreonine-3 H3 (Cell Signaling Ref. 14269) they are washed and then incubated with IRDye800 conjugated anti-mouse (Pierce/Cultek, 35521) and Alexa Fluor 680 goat anti-rabbit IgG secondary antibodies (Invitrogen, A21076). The bands are visualized and quantified using an Odyssey infrared imaging system (Li-Cor Biosciences). The percentage of phosphorylated H3 vs total H3 in synchronized cells is taken as hundred percent of phosphorylation. The percentage of H3 phosphorylation is finally plotted against concentration for each compound and EC50s for intracellular HASPIN inhibition are calculated using ActivityBase from IDBS.
# intracellular CDK8 = intracellular CDK8 (Homo sapiens (Human), UniProt P49336); experiment: Cellular CDK8 inhibition assay, western blot P-STAT1 (S727) in IFN-γ treated SW620 cells; type: cell-based; details: SW620, IFNγ treated, semiquantitative; read-out: SW620 P-STAT1(S727) w IFNγ
# Chain of intracellular CDK8 (P49336 whole entry): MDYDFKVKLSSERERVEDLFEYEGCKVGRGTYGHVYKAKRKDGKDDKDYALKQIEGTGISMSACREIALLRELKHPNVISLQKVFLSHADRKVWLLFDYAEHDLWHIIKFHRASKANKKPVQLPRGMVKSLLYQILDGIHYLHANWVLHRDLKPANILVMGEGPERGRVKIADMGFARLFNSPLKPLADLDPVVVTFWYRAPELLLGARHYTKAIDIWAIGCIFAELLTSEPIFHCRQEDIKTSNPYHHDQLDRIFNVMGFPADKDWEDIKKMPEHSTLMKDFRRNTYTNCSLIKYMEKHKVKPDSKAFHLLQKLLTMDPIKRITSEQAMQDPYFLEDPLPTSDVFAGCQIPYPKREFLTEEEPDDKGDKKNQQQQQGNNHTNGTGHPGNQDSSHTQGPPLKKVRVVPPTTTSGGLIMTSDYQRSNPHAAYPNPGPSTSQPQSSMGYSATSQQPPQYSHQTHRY
# Chain of intracellular CDK8 (P24863 whole entry partner): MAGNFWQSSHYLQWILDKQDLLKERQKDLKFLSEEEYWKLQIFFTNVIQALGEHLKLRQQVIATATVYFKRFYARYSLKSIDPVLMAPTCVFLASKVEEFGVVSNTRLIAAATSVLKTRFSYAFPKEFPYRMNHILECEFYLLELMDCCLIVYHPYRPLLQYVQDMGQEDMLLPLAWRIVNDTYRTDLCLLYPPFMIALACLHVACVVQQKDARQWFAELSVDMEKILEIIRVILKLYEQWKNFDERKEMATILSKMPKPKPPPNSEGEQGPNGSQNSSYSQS
# Chain of intracellular CDK8 (Q93074 whole entry partner): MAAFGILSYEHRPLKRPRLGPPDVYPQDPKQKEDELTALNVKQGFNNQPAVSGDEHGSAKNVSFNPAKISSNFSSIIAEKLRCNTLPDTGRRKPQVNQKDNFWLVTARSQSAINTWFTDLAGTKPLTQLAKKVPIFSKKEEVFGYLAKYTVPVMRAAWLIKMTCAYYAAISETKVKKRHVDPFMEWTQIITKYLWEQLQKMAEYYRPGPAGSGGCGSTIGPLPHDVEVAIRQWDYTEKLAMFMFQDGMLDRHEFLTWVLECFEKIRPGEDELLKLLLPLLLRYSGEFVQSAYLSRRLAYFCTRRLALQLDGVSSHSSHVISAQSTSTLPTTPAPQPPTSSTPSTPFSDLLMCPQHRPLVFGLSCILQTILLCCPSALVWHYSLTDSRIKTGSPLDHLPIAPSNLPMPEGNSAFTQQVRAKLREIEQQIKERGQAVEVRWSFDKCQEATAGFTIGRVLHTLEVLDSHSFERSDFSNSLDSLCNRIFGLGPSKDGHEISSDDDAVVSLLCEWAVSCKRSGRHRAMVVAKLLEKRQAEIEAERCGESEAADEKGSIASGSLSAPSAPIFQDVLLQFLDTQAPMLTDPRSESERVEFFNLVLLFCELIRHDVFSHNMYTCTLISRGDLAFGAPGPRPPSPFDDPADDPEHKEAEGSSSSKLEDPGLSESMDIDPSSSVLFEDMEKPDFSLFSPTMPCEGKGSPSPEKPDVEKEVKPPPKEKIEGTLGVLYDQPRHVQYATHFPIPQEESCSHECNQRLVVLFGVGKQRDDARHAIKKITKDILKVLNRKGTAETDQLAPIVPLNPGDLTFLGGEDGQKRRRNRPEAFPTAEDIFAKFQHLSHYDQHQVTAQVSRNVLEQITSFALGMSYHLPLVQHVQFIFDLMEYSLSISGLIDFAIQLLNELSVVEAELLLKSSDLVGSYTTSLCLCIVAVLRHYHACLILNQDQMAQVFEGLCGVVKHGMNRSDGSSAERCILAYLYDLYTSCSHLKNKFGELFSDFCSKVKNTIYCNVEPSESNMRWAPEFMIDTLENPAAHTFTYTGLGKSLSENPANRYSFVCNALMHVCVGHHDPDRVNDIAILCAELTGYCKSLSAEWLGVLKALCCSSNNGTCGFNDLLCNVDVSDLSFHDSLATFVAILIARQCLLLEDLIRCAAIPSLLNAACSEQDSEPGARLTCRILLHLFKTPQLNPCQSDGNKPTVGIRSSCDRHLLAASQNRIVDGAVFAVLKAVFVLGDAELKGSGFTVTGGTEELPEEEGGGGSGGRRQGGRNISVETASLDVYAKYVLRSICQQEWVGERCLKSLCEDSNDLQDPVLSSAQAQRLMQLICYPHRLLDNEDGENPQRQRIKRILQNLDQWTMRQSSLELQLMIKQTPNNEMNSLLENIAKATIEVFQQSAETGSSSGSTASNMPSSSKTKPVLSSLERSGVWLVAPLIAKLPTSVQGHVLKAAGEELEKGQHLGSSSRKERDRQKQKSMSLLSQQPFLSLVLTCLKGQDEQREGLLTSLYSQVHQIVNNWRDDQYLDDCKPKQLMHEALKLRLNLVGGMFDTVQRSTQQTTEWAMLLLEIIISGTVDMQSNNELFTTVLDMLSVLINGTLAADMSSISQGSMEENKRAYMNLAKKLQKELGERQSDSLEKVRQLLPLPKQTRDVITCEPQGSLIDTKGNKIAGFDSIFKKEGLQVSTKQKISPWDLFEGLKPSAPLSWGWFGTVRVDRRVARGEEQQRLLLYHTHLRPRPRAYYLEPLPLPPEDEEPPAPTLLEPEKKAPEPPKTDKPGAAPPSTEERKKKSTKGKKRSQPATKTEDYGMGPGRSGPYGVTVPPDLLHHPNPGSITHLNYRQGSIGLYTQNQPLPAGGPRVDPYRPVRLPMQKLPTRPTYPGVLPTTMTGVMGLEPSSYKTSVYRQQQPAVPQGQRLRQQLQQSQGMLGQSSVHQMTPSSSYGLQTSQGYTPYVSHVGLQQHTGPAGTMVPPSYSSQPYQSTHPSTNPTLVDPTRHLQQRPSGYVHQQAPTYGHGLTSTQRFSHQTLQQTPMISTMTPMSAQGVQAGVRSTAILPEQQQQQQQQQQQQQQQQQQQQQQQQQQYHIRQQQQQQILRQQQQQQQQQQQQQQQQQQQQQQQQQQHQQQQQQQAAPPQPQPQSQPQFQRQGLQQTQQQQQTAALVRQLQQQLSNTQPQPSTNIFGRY
# CDK8/Cyclin C = CDK8/Cyclin C (Homo sapiens (Human), UniProt P49336); experiment: CDK8/Cyclin C binding assay (LanthaScreen Eu-Kinase Binding Assay); details: binding assay
# Chain of CDK8/Cyclin C (P49336 whole entry): as the sequence (P49336 whole entry) above
# Chain of CDK8/Cyclin C (P24863 whole entry partner): as the sequence (P24863 whole entry partner) above
# Description: The enzyme has been purchase from Invitrogen (PV4402) as a dimer of full-length His-tagged recombinant human proteins.
# Assays were performed in 384-well plates. The final read out was generated using an EnVision plate reader (Perkin-Elmer).
# CDK19/Cyclin C = CDK19/Cyclin C (Homo sapiens (Human), UniProt Q9BWU1); experiment: CDK19/Cyclin C binding assay (LanthaScreen Eu-Kinase Binding Assay); details: read-out: CDK19-CYCC IC50
# Chain of CDK19/Cyclin C (Q9BWU1 whole entry): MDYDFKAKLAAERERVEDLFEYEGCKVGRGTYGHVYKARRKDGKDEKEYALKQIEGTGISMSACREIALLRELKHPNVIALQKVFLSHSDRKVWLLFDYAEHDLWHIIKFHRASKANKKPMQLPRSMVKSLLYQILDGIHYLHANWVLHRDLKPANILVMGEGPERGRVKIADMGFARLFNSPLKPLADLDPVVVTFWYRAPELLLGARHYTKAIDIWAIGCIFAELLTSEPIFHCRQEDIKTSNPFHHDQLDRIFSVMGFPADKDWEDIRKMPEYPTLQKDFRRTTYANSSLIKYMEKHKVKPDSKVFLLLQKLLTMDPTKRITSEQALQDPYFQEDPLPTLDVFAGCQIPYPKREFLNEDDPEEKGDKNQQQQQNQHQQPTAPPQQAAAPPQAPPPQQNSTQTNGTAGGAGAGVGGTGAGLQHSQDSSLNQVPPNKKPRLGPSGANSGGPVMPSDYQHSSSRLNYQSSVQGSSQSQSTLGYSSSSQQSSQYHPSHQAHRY
# Chain of CDK19/Cyclin C (P24863 whole entry partner): as the sequence (P24863 whole entry partner) above
# Procedure, shortened: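 LanthaScreen TR-FRET tracer-displacement format with 2 nM Cdk19-Cyclin C, 20 nM tracer and 2 nM Eu-anti-GST antibody. The buffer was 50 mM HEPES pH 7.5, 10 mM MgCl2, 1 mM EGTA, 0.01% Brij-35, with 1% DMSO final. Compounds were tested as 1:3 serial dilutions and incubated for 60 min at 25 °C.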
# Haspin kinase = Haspin kinase (Homo sapiens (Human), UniProt Q8TF76); experiment: Haspin kinase assay (ADP-Glo); type: biochemical; details: ATP 150 μM
# Chain of Haspin kinase (Q8TF76 484-798): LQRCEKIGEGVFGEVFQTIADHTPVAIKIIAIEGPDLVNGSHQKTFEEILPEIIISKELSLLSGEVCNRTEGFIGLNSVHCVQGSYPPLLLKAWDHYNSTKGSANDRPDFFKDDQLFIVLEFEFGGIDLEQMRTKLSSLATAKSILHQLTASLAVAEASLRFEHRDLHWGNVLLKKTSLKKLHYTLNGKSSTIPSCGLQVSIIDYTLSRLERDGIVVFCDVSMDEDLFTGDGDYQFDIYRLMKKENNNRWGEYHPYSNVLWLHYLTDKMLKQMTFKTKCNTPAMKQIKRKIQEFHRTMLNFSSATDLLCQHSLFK
# Procedure, shortened: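 Compounds in 1:3 serial dilutions (1% DMSO final) were incubated 60 min at 30 °C with 20 nM recombinant GST-Haspin kinase domain and 150 μM ATP, without substrate, in pH 7.4 HEPES/MgCl2 buffer. ADP formed was read by luciferase luminescence and normalized to uninhibited enzyme to give % inhibition.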
# SW620 cells = experiment: Colony formation assay; type: cell-based, human; details: SW620 cells treated 11 days
# Description: The in vitro potency of the compounds was measured by colony formation assays. SW620 cells in logarithmic growth phase are plated at 800 cells per well in 6-well plates (Solmeglas 13118) in RPMI media (Sigma-Aldrich R6504) supplemented with 10% foetal bovine serum (Sigma-Aldrich F7524), Penicillin/Streptomycin solution diluted 1:100 (Gibco 15070-063), and fungizone (Gibco, 15290-018), and allowed to adhere overnight at 37° C. in 5% CO2. Compounds are then added to the cell media from a final concentration of 10 μM in 10-fold serial dilutions and the cells are incubated at 37° C. in 5% CO2. Every three days the medium is changed by fresh medium and compounds are added again. After 11 days, colonies are washed with PBS and fixed in 0.5% crystal violet (Sigma-Aldrich Ref. V5265), 6% glutaraldehide (Sigma-Aldrich Ref. G5882) for 30 minutes. After extensive washing, colonies are dissolved in 2 ml of 10% glacial acetic acid (Sigma-Aldrich Ref. 537020) and absorbance at 590 nm is measured in the Victor 1420 Multilabel Counter (Perkin Elmer). The absorbance in cells treated with DMSO is taken as hundred percent of proliferation. The percentage of proliferation is finally plotted against concentration for each compound and EC50s for colony formation inhibition are calculated using ActivityBase from IDBS.
# [1] = test system: H3T3ph in tumoral cells from colon, breast and cervix; details: dose dependent; cited from earlier work
structure (smiles),measurement,setting,value
"CN(NC(=O)CC(=O)NN(C)C(=S)c1ccccc1)C(=S)c1ccccc1 [Elesclomol, elesclomol, reference compound]",GI50,SKMEL19,0.25 µM
same,GI50,MDAMB231,0.25 µM
same,GI50,A549,0.25 µM
same,GI50,BXPC-3,0.062 µM
same,GI50,SW620,0.25 µM
COc1ccccc1-c1c2c(n(CCF)c1C(N)=O)-c1ccncc1OC2(C)C [Example 73],EC50,intracellular HASPIN,0.5 to 10 µM
same,EC50,intracellular CDK8,< 0.5 µM
same,IC50,CDK8/Cyclin C,0.139 µM
same,IC50,CDK19/Cyclin C,0.0973 µM
same,IC50,Haspin kinase,1.12 µM
same,EC50,"SW620 cells; Homo sapiens, SW-620, 264 h, read-out: mean EC50, colony forming assay",5.43 ± 0.297 µM
same,effect in colony forming assay,SW620 cells,dose-dependent effect
CCCNc1ccc2ncc(-c3ccc4[nH]ncc4c3)n2n1 [CHR-6494],reduction of H3T3ph,[1],reduce H3T3ph
